# Results published in ChEMBL document CHEMBL1201862, “PubChem BioAssay data set” (2004).
#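 The compound was tested at five concentrations on cells cultured in 96-well plates, with a 48-hour exposure period. The concentration for 50% growth inhibition is given as GI50.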 Activity calls are given as the source filed them. No stated cut-off is given here; in the data, active = GI50 up to about 1.1 µM and inactive = higher.
# Experiments:
# Assay in all cases: NCI tumour cell line growth inhibition, 48 h
# [1] = test system: MDA-MB-231
# [2] = test system: SK-MEL-2
# [3] = test system: MCF7
# [4] = test system: OVCAR-4
# [5] = test system: A549
# [6] = test system: DU-145
# [7] = test system: HT-29
# [8] = test system: SF-539
# [9] = test system: IGROV-1
# [10] = test system: SN12C
# [11] = test system: K562
# [12] = test system: U-251
# [13] = test system: Malme-3M
# [14] = test system: SF-295
# [15] = test system: HCT-116
# [16] = test system: CAKI-1
# [17] = test system: COLO 205
# [18] = test system: HCT-15
# [19] = test system: NCI/ADR-RES
# [20] = test system: OVCAR-8
# [21] = test system: SK-MEL-5
# [22] = test system: OVCAR-5
# [23] = test system: RXF 393
# [24] = test system: UO-31
# [25] = test system: MDA-N
# [26] = test system: NCI-H226
# [27] = test system: HCC 2998
# [28] = test system: NCI-H460
# [29] = test system: SW-620
# [30] = test system: BT-549
# [31] = test system: T47D
# [32] = test system: SR
# [33] = test system: OVCAR-3
# [34] = test system: NCI-H23
# [35] = test system: MOLT-4
# [36] = test system: SNB-75
# [37] = test system: HOP-62
# [38] = test system: SF-268
# [39] = test system: CCRF-CEM
# [40] = test system: HOP-92
# [41] = test system: SK-OV-3
# [42] = test system: HL-60
# [43] = test system: UACC-62
# [44] = test system: LOX IMVI
# [45] = test system: MDA-MB-435
# [46] = test system: TK-10
# [47] = test system: Hs-578T
# [48] = test system: PC-3
# [49] = test system: SK-MEL-28
# [50] = test system: M14
# [51] = test system: EKVX
# [52] = test system: A498
# [53] = test system: UACC-257
# [54] = test system: NCI-H522
# [55] = test system: KM12
# [56] = test system: 786-0
# [57] = test system: ACHN
# [58] = test system: SNB-19
compound,measurement,setting,value
O=c1c(C(c2ccccc2)c2c(O)oc3cc(O)ccc3c2=O)c(O)oc2cc(O)ccc12,GI50,[1],> 100 µM (inactive)
same,GI50,[2],> 100 µM (inactive)
same,GI50,[3],> 100 µM (inactive)
same,GI50,[4],> 100 µM (inactive)
same,GI50,[5],> 100 µM (inactive)
same,GI50,[6],> 100 µM (inactive)
same,GI50,[7],> 100 µM (inactive)
same,GI50,[8],> 100 µM (inactive)
same,GI50,[9],> 100 µM (inactive)
same,GI50,[10],> 100 µM (inactive)
same,GI50,[11],> 100 µM (inactive)
same,GI50,[12],> 100 µM (inactive)
same,GI50,[13],> 100 µM (inactive)
same,GI50,[14],> 100 µM (inactive)
same,GI50,[15],> 100 µM (inactive)
same,GI50,[16],> 100 µM (inactive)
same,GI50,[17],> 100 µM (inactive)
same,GI50,[18],> 100 µM
same,GI50,[19],> 100 µM (inactive)
same,GI50,[20],> 100 µM (inactive)
same,GI50,[21],52 µM (inactive)
same,GI50,[22],> 100 µM (inactive)
same,GI50,[23],> 100 µM (inactive)
same,GI50,[24],> 100 µM (inactive)
same,GI50,[25],> 100 µM (inactive)
same,GI50,[26],> 100 µM (inactive)
same,GI50,[27],> 100 µM (inactive)
same,GI50,[28],> 100 µM (inactive)
same,GI50,[29],> 100 µM (inactive)
same,GI50,[30],> 100 µM (inactive)
same,GI50,[31],> 100 µM (inactive)
same,GI50,[32],> 100 µM (inactive)
same,GI50,[33],> 100 µM (inactive)
same,GI50,[34],> 100 µM (inactive)
same,GI50,[35],> 100 µM (inactive)
same,GI50,[36],> 100 µM (inactive)
same,GI50,[37],> 100 µM (inactive)
same,GI50,[38],> 100 µM (inactive)
same,GI50,[39],> 100 µM (inactive)
same,GI50,[40],> 100 µM (inactive)
same,GI50,[41],> 100 µM (inactive)
same,GI50,[42],> 100 µM (inactive)
same,GI50,[43],> 100 µM (inactive)
same,GI50,[44],> 100 µM (inactive)
same,GI50,[45],> 100 µM (inactive)
same,GI50,[46],> 100 µM (inactive)
same,GI50,[47],> 100 µM (inactive)
same,GI50,[48],> 100 µM (inactive)
same,GI50,[49],> 100 µM (inactive)
same,GI50,[50],> 100 µM (inactive)
same,GI50,[51],> 100 µM (inactive)
same,GI50,[52],> 100 µM (inactive)
same,GI50,[53],> 100 µM (inactive)
O=C(CCc1cccc(O)c1)NCCc1ccc(O)cc1,GI50,[1],> 100 µM (inactive)
same,GI50,[2],> 100 µM (inactive)
same,GI50,[54],17.3 µM (inactive)
same,GI50,[55],> 100 µM (inactive)
same,GI50,[3],> 100 µM (inactive)
same,GI50,[4],> 100 µM (inactive)
same,GI50,[5],> 100 µM (inactive)
same,GI50,[6],> 100 µM (inactive)
same,GI50,[7],> 100 µM (inactive)
same,GI50,[8],> 100 µM (inactive)
same,GI50,[9],> 100 µM (inactive)
same,GI50,[10],> 100 µM (inactive)
same,GI50,[11],> 100 µM (inactive)
same,GI50,[12],> 100 µM (inactive)
same,GI50,[13],> 100 µM (inactive)
same,GI50,[14],> 100 µM (inactive)
same,GI50,[15],> 100 µM (inactive)
same,GI50,[16],> 100 µM (inactive)
same,GI50,[17],> 100 µM (inactive)
same,GI50,[18],> 100 µM
same,GI50,[19],> 100 µM (inactive)
same,GI50,[20],> 100 µM (inactive)
same,GI50,[21],> 100 µM (inactive)
same,GI50,[22],> 100 µM (inactive)
same,GI50,[23],> 100 µM (inactive)
same,GI50,[24],> 100 µM (inactive)
same,GI50,[25],> 100 µM (inactive)
same,GI50,[26],> 100 µM (inactive)
same,GI50,[28],> 100 µM (inactive)
same,GI50,[30],> 100 µM (inactive)
same,GI50,[31],> 100 µM (inactive)
same,GI50,[32],> 100 µM (inactive)
same,GI50,[33],> 100 µM (inactive)
same,GI50,[34],> 100 µM (inactive)
same,GI50,[35],> 100 µM (inactive)
same,GI50,[56],> 100 µM (inactive)
same,GI50,[37],> 100 µM (inactive)
same,GI50,[38],> 100 µM (inactive)
same,GI50,[57],95.9 µM (inactive)
same,GI50,[39],> 100 µM (inactive)
same,GI50,[58],> 100 µM (inactive)
same,GI50,[40],> 100 µM (inactive)
same,GI50,[41],> 100 µM (inactive)
same,GI50,[42],> 100 µM (inactive)
same,GI50,[43],> 100 µM (inactive)
same,GI50,[44],> 100 µM (inactive)
same,GI50,[45],> 100 µM (inactive)
same,GI50,[46],> 100 µM (inactive)
same,GI50,[47],> 100 µM (inactive)
same,GI50,[48],> 100 µM (inactive)
same,GI50,[49],> 100 µM (inactive)
same,GI50,[50],> 100 µM (inactive)
same,GI50,[51],> 100 µM (inactive)
same,GI50,[52],> 100 µM (inactive)
same,GI50,[53],> 100 µM (inactive)
